{"source": "patent US20260191853A1", "about": "“METHOD OF TREATING DRUG-INDUCED BRADYARRHYTHMIA” (OSAKA UNIVERSITY, priority 2022, published 2026)", "key": {"[1]": {"tested_on": "Hartley guinea pigs", "experiment": "Preventive effect on fingolimod-induced bradyarrhythmia in isoflurane-anesthetized guinea pig model", "assay_type": "in vivo", "settings": "fingolimod hydrochloride 0.1 mg/kg i.v. over 10 min, compound (I) non-administration group", "method": "A solvent or compound (I) (free form) was administered by oral gavage at a dose of 1, 3, or 10 mg/kg (volume: 5 mL/kg) to Hartley guinea pigs (7 to 10 weeks old, male, available from Japan SLC, Inc.). After completion of the administration, each animal was subjected to anesthetic induction by inhalation of isoflurane (available from Pfizer Japan Inc.), and the animal was held on an operating table having a heater function. The trachea was incised, and a tracheal cannula (KN-375, available from Natsume Seisakusho Co., Ltd.) was inserted. The tracheal cannula was connected to a ventilator (SN-480-7, available from Shinano Seisakusho Co., Ltd.), and artificial respiration was controlled by supplying 100% oxygen at a volume of 10 mL and a ventilation rate of 60 times/minute. The solvent used was 0.5 w/v % methyl cellulose 400 solution (available from FUJIFILM Wako Pure Chemical Corporation). Isoflurane (available from Pfizer Japan Inc.) anesthesia (about 1 to 4%, carrier gas: 100% oxygen) was used for maintenance of anesthesia. A catheter (BD intramedic polyethylene tubing PE50, available from Becton, Dickinson and Company) charged with 50 units/mL heparin (available from AY PHARMACEUTICALS CO., LTD.) was inserted into each of the carotid artery and the jugular vein and placed in the blood vessel. Systemic blood pressure was measured with a high-sensitivity DC amplifier (AD-611J, available from NIHON KOHDEN CORPORATION) via the catheter placed in the carotid artery. Electrodes were attached to the body surface, and a body surface electrocardiogram was measured with a high-sensitivity amplifier (AB-611J, available from NIHON KOHDEN CORPORATION). Blood pressure and electrocardiogram data were acquired and analyzed with PowerLab/Labchart system (available from ADInstruments). Analysis items are systolic blood pressure, diastolic blood pressure, average blood pressure, heart rate, P-wave width, PR interval, QRS width, QT interval, and corrected QT interval. Corrected QT interval was calculated using the fridericia formula (QTc=QT interval/RR interval^1/3). After stabilization of each parameter, fingolimod hydrochloride (synthesized with reference to WO 2000/027798) was continuously administered intravenously at 0.1 mg/kg for 10 minutes via the catheter placed in the jugular vein, followed by observation of the presence or absence of the onset of bradyarrhythmia for 60 minutes. The solvent used was saline (available from Otsuka Pharmaceutical Factory, Inc.). Data were recorded and blood was collected 5, 10, 15, 20, 30, and 60 minutes after initiation of administration of fingolimod hydrochloride. The observation was terminated 60 minutes after initiation of the administration, and the animal was euthanized by exsanguination or intravenous administration of a large amount of pentobarbital or saturated potassium chloride solution under isoflurane anesthesia. Data were analyzed for atrial beating rate over time, ventricular beating rate over time, electrocardiographic parameters, the presence or absence of the onset of atrioventricular block, and plasma concentrations of compound (I), fingolimod, and fingolimod phosphorylated form. The plasma was collected by centrifuging the blood and cryopreserved at about −20° C. After thawing of the plasma, plasma drug concentrations were measured using LC/MS/MS after deproteinization with acetonitrile.\nAtrioventricular block was defined as follows.\nSecond-degree atrioventricular block: atrial activation wave (P wave) is normal, which is followed by or not followed by ventricular activation wave (QRS wave).\nThird-degree atrioventricular block: there is no electrical conduction between the atrium and the ventricle, and atrial and ventricular activation waves are generated independently, resulting in atrioventricular dissociation.\nIn FIG. 1, the measurements are shown as mean±standard error. […]"}, "[2]": {"tested_on": "Hartley guinea pigs", "experiment": "Termination effect on fingolimod-induced bradyarrhythmia in isoflurane-anesthetized guinea pig model", "assay_type": "in vivo", "settings": "30 minutes after initiation of administration of 0.1 mg/kg i.v.; FIG. 5", "source_text": "Hartley guinea pigs (7 to 10 weeks old, male, available from Japan SLC, Inc.) were subjected to anesthetic induction by inhalation of isoflurane (available from Pfizer Japan Inc.), and each animal was held on an operating table having a heater function. The trachea was incised, and a tracheal cannula (KN-375, available from Natsume Seisakusho Co., Ltd.) was inserted. The tracheal cannula was connected to a ventilator (SN-480-7, available from Shinano Seisakusho Co., Ltd.), and artificial respiration was controlled by supplying 100% oxygen at a volume of 10 mL and a ventilation rate of 60 times/minute. Isoflurane (available from Pfizer Japan Inc.) anesthesia (about 1 to 4%, carrier gas: 100% oxygen) was used for maintenance of anesthesia. A catheter (BD intramedic polyethylene tubing PE50, available from Becton, Dickinson and Company) charged with 50 units/mL heparin (available from AY PHARMACEUTICALS CO., LTD.) was inserted into each of the carotid artery and the jugular vein and placed in the blood vessel. Systemic blood pressure was measured with a high-sensitivity DC amplifier (AD-611J, available from NIHON KOHDEN CORPORATION) via the catheter placed in the carotid artery. Electrodes were attached to the body surface, and a body surface electrocardiogram was measured with a high-sensitivity amplifier (AB-611J, available from NIHON KOHDEN CORPORATION). Blood pressure and electrocardiogram data were acquired and analyzed with PowerLab/Labchart system (available from ADInstruments). After stabilization of each parameter, fingolimod hydrochloride (available from Nissan Chemical Corporation) was continuously administered intravenously at 0.1 mg/kg for 10 minutes via the catheter placed in the jugular vein, followed by observation of the presence or absence of atrioventricular block. After confirmation that atrioventricular block continued for 10 minutes from the onset thereof, a solvent or compound (I) dihydrochloride was continuously administered intravenously at 0.1 mg/kg for 30 minutes, and the effect of terminating atrioventricular block was observed during the intravenous administration. The solvent used was saline (available from Otsuka Pharmaceutical Factory, Inc.). Data were recorded and blood was collected 10, 20, and 30 minutes after initiation of administration of compound (I) dihydrochloride and at the time of termination of atrioventricular block. The observation was terminated 30 minutes after initiation of the administration, and the animal was euthanized by exsanguination or intravenous administration of a large amount of saturated potassium chloride solution under isoflurane anesthesia. Data were analyzed for the presence or absence of the termination, the time required for the termination, and the plasma concentration of compound (I) at the time of termination. The plasma was collected by centrifuging the blood and cryopreserved at about −20° C. After thawing of the plasma, plasma drug concentrations were measured using LC/MS/MS after deproteinization with acetonitrile.\nIn Table 1, the measurements are shown as mean±standard error."}, "[3]": {"tested_on": "Hartley guinea pigs", "experiment": "Preventive effect on siponimod-induced bradyarrhythmia in isoflurane-anesthetized guinea pig model", "assay_type": "in vivo", "settings": "siponimod 0.01 mg/kg i.v. over 10 min, compound (I) non-administration group", "method": "A solvent or compound (I) (free form) was administered by oral gavage at a dose of 0.3. 1, or 3 mg/kg (volume: 5 mL/kg) to Hartley guinea pigs (7 to 10 weeks old, male, available from Japan SLC, Inc.). After completion of the administration, each animal was subjected to anesthetic induction by inhalation of isoflurane (available from Pfizer Japan Inc.), and the animal was held on an operating table having a heater function. The trachea was incised, and a tracheal cannula (KN-375, available from Natsume Seisakusho Co., Ltd.) was inserted. The tracheal cannula was connected to a ventilator (SN-480-7, available from Shinano Seisakusho Co., Ltd.), and artificial respiration was controlled by supplying 100% oxygen at a volume of 10 mL and a ventilation rate of 60 times/minute. The solvent used was 0.5 w/v % methyl cellulose 400 solution (available from FUJIFILM Wako Pure Chemical Corporation). Isoflurane (available from Pfizer Japan Inc.) anesthesia (about 1 to 4%, carrier gas: 100% oxygen) was used for maintenance of anesthesia. A catheter (BD intramedic polyethylene tubing PE50, available from Becton, Dickinson and Company) charged with 50 units/mL heparin (available from AY PHARMACEUTICALS CO., LTD.) was inserted into each of the carotid artery and the jugular vein and placed in the blood vessel. Systemic blood pressure was measured with a high-sensitivity DC amplifier (AD-611J, available from NIHON KOHDEN CORPORATION) via the catheter placed in the carotid artery. Electrodes were attached to the body surface, and a body surface electrocardiogram was measured with a high-sensitivity amplifier (AB-611J, available from NIHON KOHDEN CORPORATION). Blood pressure and electrocardiogram data were acquired and analyzed with PowerLab/Labchart system (available from ADInstruments). Analysis items are systolic blood pressure, diastolic blood pressure, average blood pressure, heart rate, P-wave width, PR interval, QRS width, QT interval, and corrected QT interval. Corrected QT interval was calculated using the Fridericia formula (QTc=QT interval/RR interval^1/3). After stabilization of each parameter, siponimod (synthesized according to WO 2017/120124) was continuously administered intravenously at 0.01 mg/kg for 10 minutes via the catheter placed in the jugular vein, followed by observation of the presence or absence of the onset of bradyarrhythmia for 60 minutes. The solvent used was a solution prepared by mixing of Polyethylene Glycol 400 (available from KANTO CHEMICAL CO., INC.) and dimethyl sulfoxide (available from FUJIFILM Wako Pure Chemical Corporation) at 9: 1 (volume ratio). Data were recorded and blood was collected 5, 10, 15, 20, 30, and 60 minutes after initiation of administration of siponimod. The observation was terminated 60 minutes after initiation of the administration, and the animal was euthanized by exsanguination or intravenous administration of a large amount of saturated potassium chloride solution under isoflurane anesthesia. Data were analyzed for atrial beating rate over time, ventricular beating rate over time, electrocardiographic parameters, the presence or absence of the onset of atrioventricular block, and plasma concentrations of compound (I) and siponimod. The plasma was collected by centrifuging the blood and cryopreserved at about −20° C. After thawing of the plasma, plasma drug concentrations were measured using LC/MS/MS after deproteinization with acetonitrile.\nIn FIG. 3, the measurements are shown as mean±standard error. Abbreviations, etc. are as follows. • (I): compound (I) • Atrioventricular block: the presence or absence of atrioventricular block • (x denotes second- or third-degree atrioventricular block) • PR & QRS: atrioventricular conduction time and ventricular activation time • QT & QTcF: ventricular repolarization time and heart rate-corrected ventricular repolarization time • Plasma concentration: the plasma concentration of siponimod or compound (I)"}, "[4]": {"tested_on": "human iPS cell-derived atrial myocytes", "experiment": "Siponimod-induced decrease in beating rate in human iPS cell-derived atrial myocytes (multi-electrode array)", "assay_type": "cell-based", "settings": "0.1 μM siponimod, observed 10 minutes", "method": "Cryopreserved human iPS cell-derived atrial myocytes (Human iPSC-derived atrial cardiomyocytes, available from Axol Bioscience) were thawed and seeded at 1,400,000 cells/well on a fibronectin-coated 6-well plate, followed by culturing in an incubator at 37° C. and 5% CO2 for 11 days. During the culture, the entire amount of medium was changed every other day. After the elapse of 11 days, human iPS cell-derived atrial myocytes that started beating were removed from the plate and recovered with TrypLE Select Enzyme (available from ThermoFisher Scientific). The atrial myocytes were seeded at 25,000 cells/2 μL on a fibronectin-coated 6-well MEA Chip (60-6well MEA200/30iR-Ti-tcr, available from Multi Channel Systems) and cultured in an incubator at 37° C. and 5% CO2 for one hour. Thereafter, 400 μL of medium was added and cultured in an incubator at 37° C. and 5% CO2 for 13 days. During the culture, a half amount of the medium was changed every other day. After the elapse of […], the MEA Chip was set in a multi-electrode array system (MEA2100, available from Multi Channel Systems) to thereby obtain extracellular potentials under spontaneous beating. […] Data were analyzed with Labchart System (available from ADInstruments).\nIn FIG. 6, the measurements are shown as mean±standard error, and (I) denotes compound (I)."}}, "note": "Where a name gives a salt, the structure may show the parent alone."}
{"compound": "CCCCCCCCc1ccc(CCC(N)(CO)CO)cc1", "note": "[fingolimod, reference compound]", "values": [{"measurement": "cases with fingolimod-induced atrioventricular block", "setting": "[1]", "value": "four out of four"}]}
{"compound": "Cc1cc(CO)nc2cc3c(cc12)OC(C)(C)[C@H](O)[C@H]3NCCc1ccccc1", "note": "[compound (I) dihydrochloride]", "values": [{"measurement": "fingolimod-induced bradycardia (heart rate, electrocardiogram)", "setting": "[2]", "value": "completely recovered"}]}
{"compound": "CCc1cc(/C(C)=N/OCc2ccc(C3CCCCC3)c(C(F)(F)F)c2)ccc1CN1CC(C(=O)O)C1", "note": "[siponimod, reference compound]", "values": [{"measurement": "cases with siponimod-induced atrioventricular block", "setting": "[3]", "value": "three out of four"}, {"measurement": "beating rate after addition of siponimod (sinus bradycardia)", "setting": "[4]", "value": "≤ 50", "unit": "beats/minute"}]}
